Laboratory results published in publication PMC3214651 (Antiviral research, 2009).
pEC50: −log10 of the molar value.

Legend:
WNV = settings: ref Zou et al., 2008; cited from earlier work
WNV NTPase (NS3) = WNV NTPase (NS3) (West Nile virus, UniProt Q9Q6P4); test: NTPase assay; format: biochemical; settings: 1 µM, control compound
WNV protease (NS2b-NS3) = WNV protease (NS2b-NS3) (West Nile virus, UniProt Q9Q6P4); test: Protease assay; settings: 25 µM, control compound

O[C@H]1[C@H]2c3cc4c(cc3CN3CCC(=C[C@@H]1O)[C@H]23)OCO4 [lycorine]
pEC50 (WNV): 6.64 | TI (WNV): 104

Nc1nc2c(ncn2[C@@H]2O[C@H](COP(=O)(O)OP(=O)(O)OP(=O)(O)O)[C@@H](O)[C@H]2O)c(=O)[nH]1 [nonradioactive GTP, GTP]
suppression of NTPase activity (WNV NTPase (NS3)): > 85%

aprotinin
suppression of protease activity (WNV protease (NS2b-NS3)): > 85%
